{"source": "paper PMC1241434", "about": "(Environmental Health Perspectives, 2003)", "key": {"[1]": {"target": "T1, human estrogen receptor-alpha (hER alpha) (Homo sapiens, UniProt P03372)", "T1 sequence (P03372 1-595)": "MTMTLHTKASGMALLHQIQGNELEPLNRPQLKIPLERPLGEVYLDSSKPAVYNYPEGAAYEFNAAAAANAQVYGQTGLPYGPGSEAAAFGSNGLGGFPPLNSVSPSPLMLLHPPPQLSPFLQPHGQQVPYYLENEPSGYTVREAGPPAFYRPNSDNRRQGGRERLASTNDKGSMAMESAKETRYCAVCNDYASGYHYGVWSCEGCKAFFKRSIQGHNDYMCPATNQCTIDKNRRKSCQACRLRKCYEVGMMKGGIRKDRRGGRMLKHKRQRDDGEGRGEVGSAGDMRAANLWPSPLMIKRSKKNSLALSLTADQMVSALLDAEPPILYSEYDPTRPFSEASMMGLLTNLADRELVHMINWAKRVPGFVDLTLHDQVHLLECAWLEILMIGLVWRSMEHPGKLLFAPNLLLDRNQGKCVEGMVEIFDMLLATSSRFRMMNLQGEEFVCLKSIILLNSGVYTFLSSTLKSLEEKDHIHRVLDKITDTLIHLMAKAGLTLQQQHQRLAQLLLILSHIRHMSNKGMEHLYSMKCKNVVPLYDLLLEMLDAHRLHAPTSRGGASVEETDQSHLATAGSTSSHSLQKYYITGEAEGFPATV", "experiment": "hER alpha reporter gene assay in CHO cells, agonist mode", "settings": "for estrogenic activity of steroids: at the concentrations tested; for hER-mediated transcriptional activity (estrogenic activity): 10^-5 M, absence of E2"}, "[2]": {"target": "T2, human androgen receptor (hAR) (Homo sapiens, UniProt P10275)", "T2 sequence (P10275 1-920)": "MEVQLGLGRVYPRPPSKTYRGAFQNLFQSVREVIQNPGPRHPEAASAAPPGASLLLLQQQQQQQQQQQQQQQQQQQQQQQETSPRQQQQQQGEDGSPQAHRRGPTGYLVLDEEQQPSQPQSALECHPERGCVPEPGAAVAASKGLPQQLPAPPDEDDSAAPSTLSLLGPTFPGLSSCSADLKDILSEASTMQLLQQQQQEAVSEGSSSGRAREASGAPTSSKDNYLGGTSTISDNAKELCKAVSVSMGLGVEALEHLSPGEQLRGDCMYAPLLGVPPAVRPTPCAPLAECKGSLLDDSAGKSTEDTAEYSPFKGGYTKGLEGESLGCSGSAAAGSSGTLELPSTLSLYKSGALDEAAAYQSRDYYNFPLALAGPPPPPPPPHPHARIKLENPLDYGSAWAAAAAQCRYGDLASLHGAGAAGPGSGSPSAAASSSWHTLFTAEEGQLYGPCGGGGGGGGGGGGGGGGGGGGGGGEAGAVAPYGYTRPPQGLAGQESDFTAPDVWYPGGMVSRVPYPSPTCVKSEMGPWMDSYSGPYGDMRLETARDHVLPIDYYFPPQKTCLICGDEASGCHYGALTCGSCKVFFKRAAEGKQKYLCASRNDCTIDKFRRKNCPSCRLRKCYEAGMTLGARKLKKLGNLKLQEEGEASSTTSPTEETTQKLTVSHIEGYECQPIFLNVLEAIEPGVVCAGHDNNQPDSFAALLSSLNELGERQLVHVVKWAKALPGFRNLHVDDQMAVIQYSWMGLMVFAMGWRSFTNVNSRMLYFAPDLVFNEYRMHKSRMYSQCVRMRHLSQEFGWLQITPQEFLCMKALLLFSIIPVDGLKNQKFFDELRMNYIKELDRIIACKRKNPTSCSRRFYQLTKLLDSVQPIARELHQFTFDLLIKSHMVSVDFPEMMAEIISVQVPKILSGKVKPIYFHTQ", "experiment": "hAR reporter gene assay in CHO cells, antagonist mode", "settings": "for inhibition of hAR-mediated transcriptional activity by DHT: 10^-5 M, presence of 10^-10 M DHT"}, "[3]": {"target": "T1, human estrogen receptor-alpha (hER alpha)", "experiment": "hER alpha reporter gene assay in CHO cells, antagonist mode", "settings": "10^-5 M, presence of 10-11 M E2, versus vehicle"}, "CHO-K1 cells": {"system": "CHO-K1 cells", "experiment": "Renilla luciferase activity as toxicity control in transfected CHO cells", "settings": "conditions of the hAR antagonist assay, data not shown"}, "human AR": {"target": "T3, human AR (Homo sapiens, UniProt P10275)", "T3 sequence (P10275 1-920)": "T2 sequence (P10275 1-920)", "experiment": "Competitive binding assay for AR", "settings": "ratio of IC50 of mibolerone to that of test compound, mibolerone set at 100"}, "[4]": {"target": "T2, human androgen receptor (hAR)", "experiment": "hAR reporter gene assay in CHO cells, agonist mode", "settings": "for hAR-mediated transcriptional activity (androgenicity): 10^-5 M, absence of DHT"}, "human ER": {"target": "T4, human ER (Homo sapiens, UniProt P03372)", "T4 sequence (P03372 1-595)": "T1 sequence (P03372 1-595)", "experiment": "Competitive binding assay for ER", "settings": "for RBA-E (relative binding affinity for hER): ratio of IC50 of DES to that of test compound, DES set at 100"}, "estrogenic activity": {"system": "estrogenic activity", "settings": "10^-5 M; ref Nishikawa et al. (2000); cited from earlier work"}}, "data": [{"smiles": "CC(=O)[C@H]1CC[C@H]2[C@@H]3CCC4=CC(=O)CC[C@]4(C)[C@H]3CC[C@]12C", "note": "[progesterone, reference compound]", "values": [{"measurement": "estrogenic activity of steroids", "setting": "[1]", "result": "inactive"}]}, {"smiles": "C[C@]12CC[C@H]3[C@@H](CCC4=CC(=O)CC[C@@]43C)[C@@H]1CC[C@@H]2O", "note": "[testosterone, reference compound]", "values": [{"measurement": "estrogenic activity of steroids", "setting": "[1]", "result": "positive by this assay at high concentrations"}]}, {"smiles": "Nc1ccc(Oc2c(Cl)cc(Cl)cc2Cl)cc1", "note": "[CNP-amino, 2,4,6-trichlorophenyl-4-aminophenyl ether]", "values": [{"measurement": "inhibition of hAR-mediated transcriptional activity by DHT", "setting": "[2]", "result": "inhibited"}, {"measurement": "antiandrogen intensity relative to CNP", "setting": "[2]; ratio to CNP", "result": "more than 1/10"}, {"measurement": "effect on estrogenic activity of E2 (antiestrogenic activity)", "setting": "[3]", "result": "did not show any significant differences"}, {"measurement": "effect on cellular viability (Renilla luciferase activity)", "setting": "CHO-K1 cells", "result": "did not affect the cellular viability"}, {"measurement": "RBA-A (relative binding affinity for hAR)", "setting": "human AR", "result": 0.33}, {"measurement": "hAR-mediated transcriptional activity (androgenicity)", "setting": "[4]", "result": "no androgenicity"}, {"measurement": "hER-mediated transcriptional activity (estrogenic activity)", "setting": "[1]", "result": "potent estrogenic activity"}, {"measurement": "estrogenic activity, fold higher than p,p-DDT", "setting": "[1]; versus p,p-DDT", "result": "about 4 fold"}, {"measurement": "RBA-E (relative binding affinity for hER)", "setting": "human ER", "result": 0.036}]}, {"smiles": "Clc1ccc(C(c2ccccc2Cl)C(Cl)(Cl)Cl)cc1", "note": "(centres unmarked) [o,p-DDT, 1,1,1-trichloro-2-(p-chlorophenyl)-2-(o-chlorophenyl)ethane, reference compound]", "values": [{"measurement": "effect on estrogenic activity of E2 (antiestrogenic activity)", "setting": "[3]", "result": "did not show any significant differences"}, {"measurement": "hER-mediated transcriptional activity (estrogenic activity)", "setting": "[1]", "result": "potent estrogenic activity"}]}, {"smiles": "O=[N+]([O-])c1ccc(Oc2c(Cl)cc(Cl)cc2Cl)cc1", "note": "[CNP, 2,4,6-trichlorophenyl-4-nitrophenyl ether]", "values": [{"measurement": "inhibition of hAR-mediated transcriptional activity by DHT", "setting": "[2]", "result": "inhibited"}, {"measurement": "antiandrogenic potency, fold higher than o,p-DDT", "setting": "[2]; IC50 ratio versus o,p-DDT", "result": "~10", "unit": "fold"}, {"measurement": "antiandrogenic potency, fold higher than p,p-DDE", "setting": "[2]; IC50 ratio versus p,p-DDE", "result": "~14", "unit": "fold"}, {"measurement": "antiandrogenic potency, fold higher than vinclozolin", "setting": "[2]; IC50 ratio versus vinclozolin", "result": "approximately 3.5 fold"}, {"measurement": "effect on estrogenic activity of E2 (antiestrogenic activity)", "setting": "[3]", "result": "did not show any significant differences"}, {"measurement": "effect on cellular viability (Renilla luciferase activity)", "setting": "CHO-K1 cells", "result": "did not affect the cellular viability"}, {"measurement": "RBA-A (relative binding affinity for hAR)", "setting": "human AR", "result": 8.64}, {"measurement": "estrogenic activity in yeast two-hybrid assay", "setting": "estrogenic activity", "result": "negative"}, {"measurement": "hAR-mediated transcriptional activity (androgenicity)", "setting": "[4]", "result": "weakly androgenic"}, {"measurement": "hER-mediated transcriptional activity (estrogenic activity)", "setting": "[1]", "result": "potent estrogenic activity"}, {"measurement": "effect on the binding of E2 to hER", "setting": "human ER", "result": "very low"}, {"measurement": "RBA-E (relative binding affinity for hER)", "setting": "human ER", "result": "< 0.0009"}]}, {"smiles": "C[C@]12CC[C@@H]3c4ccc(O)cc4CC[C@H]3[C@@H]1CCC2=O", "note": "[estrone, reference compound]", "values": [{"measurement": "androgenic activity of steroids", "setting": "[4]; at the concentrations tested", "result": "only low activity"}]}]}
